Test results as given in patent US9937151B2, “Carbapenem antibacterials with gram-negative activity” (priority 2010, dated 2018).
Values after ≈ are worked out from the molar mass of the structure shown.

Tested on: G(−) bacterial strains
Experiment: Dilution antimicrobial susceptibility tests (MIC, NCCLS agar dilution / broth dilution)
Format: cell-based, Gram-negative organisms
Settings: unit assumed
Method in brief: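 Agar dilution on Mueller-Hinton agar at 10^4 CFU/spot and broth dilution at 5×10^5 CFU/well, per NCCLS M7-A5. Streptococci tested on Mueller-Hinton agar with 5% sheep blood. MIC taken as minimum inhibitory concentration; ATCC control strains run alongside.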

[1] = strain #1 Acinetobacter calcoaceticus
[2] = strain #2 Acinetobacter baumannii, Cf-R, Ci-R
[3] = strain #3 Acinetobacter baumannii, Cf-R, Ci-R, Mp-I
[4] = strain #4 Acinetobacter baumannii, Cf-R, Imp-I, CBPase
[5] = strain #7 Enterobacter aerogenes
[6] = strain #8 Enterobacter cloacae, Cf-R, B+
[7] = strain #9 Enterobacter cloacae, Cf-R
[8] = strain #10 Escherichia coli, Ci-R
[9] = strain #11 Escherichia coli, Ci-R, AmpC
[10] = strain #15 Klebsiella pneumoniae
[11] = strain #16 Moraxella catarrhalis
[12] = strain #21 Providencia rettgeri
[13] = strain #22 Salmonella typhimurium
[14] = strain #25 Shigella dysenteriae
[15] = strain #28 Stenotrophomonas maltophilia
[16] = strain #29 Pseudomonas aeruginosa
[17] = strain #30 Pseudomonas aeruginosa
[18] = strain #31 Pseudomonas aeruginosa, Ofx-R
[19] = strain #32 Pseudomonas aeruginosa, Cf-R
[20] = strain #33 Pseudomonas aeruginosa, Ci-R
[21] = strain #34 Pseudomonas aeruginosa, Gen-R
[22] = strain #35 Pseudomonas aeruginosa, Ip-R
[23] = strain #36 Pseudomonas aeruginosa, Cf-R, Ci-R, Mp-R

Compound | MIC [1] | MIC [2] | MIC [3] | MIC [4] | MIC (strain #5 Citrobacter diversus) | MIC (strain #6 Citrobacter freundii) | MIC [5] | MIC [6] | MIC [7] | MIC [8] | MIC [9] | MIC (strain #12 Escherichia coli) | MIC (strain #13 Escherichia coli) | MIC (strain #14 Klebsiella oxytoca) | MIC [10] | MIC [11] | MIC (strain #17 Morganella Morganii) | MIC (strain #18 Morganella Morganii) | MIC (strain #19 Proteus vulgaris) | MIC (strain #20 Proteus mirabilis) | further results
C[C@@H](O)C1C(=O)N2C(C(=O)O)=C(CN3CCC(NC(=O)CNC(=N)N)C3)[C@H](C)C12 (stereo partly shown) [Compound 167] | 32 µg/mL (≈ 78.3 µM) | > 32 µg/mL | > 32 µg/mL | > 32 µg/mL | 1 µg/mL (≈ 2.45 µM) | 2 µg/mL (≈ 4.9 µM) | 4 µg/mL (≈ 9.79 µM) | 2 µg/mL (≈ 4.9 µM) | 2 µg/mL (≈ 4.9 µM) | 1 µg/mL (≈ 2.45 µM) | 1 µg/mL (≈ 2.45 µM) | 1 µg/mL (≈ 2.45 µM) | 1 µg/mL (≈ 2.45 µM) | 2 µg/mL (≈ 4.9 µM) | 2 µg/mL (≈ 4.9 µM) | 2 µg/mL (≈ 4.9 µM) | 8 µg/mL (≈ 19.6 µM) | 8 µg/mL (≈ 19.6 µM) | 4 µg/mL (≈ 9.79 µM) | 2 µg/mL (≈ 4.9 µM) | MIC [12]: 2 µg/mL (≈ 4.9 µM); MIC [13]: 2 µg/mL (≈ 4.9 µM); MIC (strain #23 Serratia marcescens): 2 µg/mL (≈ 4.9 µM); MIC (strain #24 Serratia marcescens): 4 µg/mL (≈ 9.79 µM); MIC [14]: 1 µg/mL (≈ 2.45 µM); MIC (strain #26 Shigella sonnei): 1 µg/mL (≈ 2.45 µM); MIC (strain #27 Shigella flexneri): 1 µg/mL (≈ 2.45 µM); MIC [15]: 16 µg/mL (≈ 39.2 µM)
C[C@@H](O)[C@H]1C(=O)N2C(C(=O)O)=C(CN3C[C@@H](O)[C@H](NC(=N)N)C3)[C@H](C)[C@H]12 [Compound 178] | 0.13 µg/mL (≈ 0.354 µM) | 1 µg/mL (≈ 2.72 µM) | 1 µg/mL (≈ 2.72 µM) | 1 µg/mL (≈ 2.72 µM) | 0.25 µg/mL (≈ 0.68 µM) | 0.5 µg/mL (≈ 1.36 µM) | 1 µg/mL (≈ 2.72 µM) | 0.25 µg/mL (≈ 0.68 µM) | 0.5 µg/mL (≈ 1.36 µM) | 0.25 µg/mL (≈ 0.68 µM) | 0.25 µg/mL (≈ 0.68 µM) | 0.5 µg/mL (≈ 1.36 µM) | 0.5 µg/mL (≈ 1.36 µM) | 0.5 µg/mL (≈ 1.36 µM) | 0.5 µg/mL (≈ 1.36 µM) | ≤ 0.008 µg/mL | 2 µg/mL (≈ 5.44 µM) | 2 µg/mL (≈ 5.44 µM) | 2 µg/mL (≈ 5.44 µM) | 0.5 µg/mL (≈ 1.36 µM) | MIC [12]: 1 µg/mL (≈ 2.72 µM); MIC [13]: 0.5 µg/mL (≈ 1.36 µM); MIC (strain #23 Serratia marcescens): 1 µg/mL (≈ 2.72 µM); MIC (strain #24 Serratia marcescens): 2 µg/mL (≈ 5.44 µM); MIC [14]: 0.5 µg/mL (≈ 1.36 µM); MIC (strain #26 Shigella sonnei): 0.5 µg/mL (≈ 1.36 µM); MIC (strain #27 Shigella flexneri): 0.25 µg/mL (≈ 0.68 µM); MIC [15]: 0.13 µg/mL (≈ 0.354 µM); MIC [16]: 1 µg/mL (≈ 2.72 µM); MIC [17]: 2 µg/mL (≈ 5.44 µM); MIC [18]: 1 µg/mL (≈ 2.72 µM); MIC [19]: 2 µg/mL (≈ 5.44 µM); MIC [20]: 2 µg/mL (≈ 5.44 µM); MIC [21]: 2 µg/mL (≈ 5.44 µM); MIC [22]: 2 µg/mL (≈ 5.44 µM); MIC [23]: 16 µg/mL (≈ 43.5 µM)
CC(O)C1C(=O)N2C(C(=O)O)=C(CN3CCC(C(=N)N)C3)C(C)C12 (stereo not shown) [Compound 185a] | 0.13 µg/mL (≈ 0.386 µM) | 0.5 µg/mL (≈ 1.49 µM) | 1 µg/mL (≈ 2.97 µM) | 1 µg/mL (≈ 2.97 µM) | 0.13 µg/mL (≈ 0.386 µM) | 0.13 µg/mL (≈ 0.386 µM) | 0.5 µg/mL (≈ 1.49 µM) | 0.063 µg/mL (≈ 0.187 µM) | 0.13 µg/mL (≈ 0.386 µM) | 0.063 µg/mL (≈ 0.187 µM) | 0.063 µg/mL (≈ 0.187 µM) | 0.063 µg/mL (≈ 0.187 µM) | 0.13 µg/mL (≈ 0.386 µM) | 0.25 µg/mL (≈ 0.743 µM) | 0.25 µg/mL (≈ 0.743 µM) | ≤ 0.008 µg/mL | 1 µg/mL (≈ 2.97 µM) | 1 µg/mL (≈ 2.97 µM) | 0.5 µg/mL (≈ 1.49 µM) | 0.13 µg/mL (≈ 0.386 µM) | MIC [12]: 0.5 µg/mL (≈ 1.49 µM); MIC [13]: 0.13 µg/mL (≈ 0.386 µM); MIC (strain #23 Serratia marcescens): 0.25 µg/mL (≈ 0.743 µM); MIC (strain #24 Serratia marcescens): 0.5 µg/mL (≈ 1.49 µM); MIC [14]: 0.13 µg/mL (≈ 0.386 µM); MIC (strain #26 Shigella sonnei): 0.13 µg/mL (≈ 0.386 µM); MIC (strain #27 Shigella flexneri): 0.063 µg/mL (≈ 0.187 µM); MIC [15]: 0.063 µg/mL (≈ 0.187 µM); MIC [16]: 1 µg/mL (≈ 2.97 µM); MIC [17]: 1 µg/mL (≈ 2.97 µM); MIC [18]: 0.5 µg/mL (≈ 1.49 µM); MIC [19]: 1 µg/mL (≈ 2.97 µM); MIC [20]: 1 µg/mL (≈ 2.97 µM); MIC [21]: 1 µg/mL (≈ 2.97 µM); MIC [22]: 2 µg/mL (≈ 5.95 µM); MIC [23]: 8 µg/mL (≈ 23.8 µM)
